From patent US12514928B2, “Herboxidiene antibody-drug conjugates and methods of use” (Eisai R&D Management Co., Ltd., priority 2018, dated 2026)
Read-outs that look alike come from different tables or passages of the source.

Assays:
THP1.1 = test: Herboxidiene splicing modulator cell potency, CTGlo-ATS, THP1.1, 72 h; type: cell-based; conditions: payload; for GI50: THP1.1, read-out: CTGIo-ATS GMean GI50 (nM) 72 h THP1.1
Ad2.2 pre-mRNA = test: In vitro splicing (IVS) assay with HeLa nuclear extract, RT-qPCR of spliced product; type: biochemical; conditions: payload, HELA.2, read-out: qPCR-IVS-ATS GMean IC50 (nM) Ad2.2 HELA.2
Protocol: 2.1 In Vitro Splicing (IVS)
To evaluate payload activity in a cell-free system, an in vitro splicing assay was performed. The payloads were incubated with nuclear extracts and pre-mRNA substrate minigenes.
HeLa nuclear extract preparation: HeLa S3 cell pellets were resuspended in hypotonic buffer (10 mM HEPES pH 7.9, 1.5 mM MgCl2, 10 mM KCl, 0.2 mM PMSF, 0.5 mM DTT) and the suspension was brought up to a total of 5 packed cell volume (PCV). After centrifugation, the supernatant was discarded, and the cells were brought up to 3 PCV with hypotonic buffer and incubated on ice for 10 min. Cells were lysed using a dounce homogenizer and then centrifuged. The supernatant was discarded, and the pellet was resuspended with […] packed nuclear volume (PNV) of low salt buffer (20 mM HEPES pH 7.9, 1.5 mM MgCl2, 20 mM KCl, 0.2 mM EDTA, 25% glycerol, 0.2 mM PMSF, 0.5 mM DTT), followed by 1/2 PNV of high salt buffer (same as low salt buffer except 1.4 M KCl). The nuclei were gently mixed for 30 min before centrifuging. The supernatant (nuclear extract) was then dialyzed into storage buffer (20 mM HEPES pH 7.9, 100 mM KCl, 0.2 mM EDTA, 20% glycerol, 0.2 mM PMSF, 0.5 mM DTT). Protein concentration was determined using NanoDrop 8000 UV-Vis spectrophotometer (ThermoFisher Scientific).
IVS: All Ad2-derived sequences (Pellizzoni et al. (1998) Cell 95(5):615-24) were cloned into pcDNA3.1(+) vector (Promega) using 5′ EcoRI and 3′ Xbal restriction sites. The plasmids were linearized using Xbal and used as DNA templates in in vitro transcription reactions. The FtzΔi intron-less plasmid (Luo and Reed (1999) 96(26):14937-42) was linearized using EcoRI. All RNAs were in vitro transcribed and then purified using MEGAScript T7 (Invitrogen) and MegaClear (Invitrogen) kits, respectively. For splicing reactions using Ad2 variant pre-mRNAs, […] were prepared using 8 μg nuclear extracts prepared from HeLa S3, 2 ng pre-mRNA, 0.2 ng FTZΔi, and varying concentrations of compounds or DMSO. After a 15 min pre-incubation at 30° C., 1 μL splicing activation buffer (0.5 mM ATP, 20 mM creatine phosphate, 1.6 mM MgCl2) was added, and the reactions were incubated for 90 min at 30° C. The reactions were then quenched with 13 μL DMSO, and 25 nL was used for RT-qPCR. RT-qPCR reactions were prepared using TaqMan RNA-to-CT 1-step kit (Life Technologies), RNA from splicing reactions, Ad2 (forward: […]; reverse: […]; probe: CTGTTGGGCTCGCGGTTG) and Ftz (forward: […]; reverse: […]; probe: […]) mRNA primer-probe sets. Prism 7 (Graphpad) was used for non-linear regression curve fitting of the formed spliced product and normalized to the control (DMSO) sample.

Ad2.1 = test: In vitro splicing (IVS) assay, qPCR-IVS-ATS, Ad2.1 substrate, HELA.2; type: biochemical; conditions: payload, read-out: qPCR-IVS-ATS GMean IC50 (nM) Ad2.1 HELA.2
NCIH1650.1 = test: Herboxidiene splicing modulator cell potency, CTGlo-ATS, NCIH1650.1, 72 h; type: cell-based; conditions: payload; for GI50: NCIH1650.1, read-out: CTGIo-ATS GMean GI50 (nM) 72 h NCIH1650.1
[1] = tested on: HCC1954 breast cancer cells; test: Payload cell viability dose response (CellTiter-Glo 2.0), HCC1954 (Example 4); type: cell-based, human; conditions: for GI50: Homo sapiens
Protocol: (§1) Cell viability dose response was determined for exemplary payload compounds in HER2-amplified HCC1954 breast cancer cells and NCI-N87 gastric cancer cells.
(§2) HCC1954 (American Type Culture Collection (ATCC)) breast ductal carcinoma or NCI-N87 (ATCC) gastric carcinoma cells were plated at 500 cells/well in flat bottom 384-well tissue culture plates (Corning) in a total volume of 30 μL tissue culture medium supplemented with 10% fetal bovine serum (ThermoFisher Scientific). Cells were treated with a 4-fold serial dilution of compound from 10000 nM to 0.01 nM. Each concentration was tested in triplicate. At the time of treatment, a plate of untreated cells was evaluated using CellTiter-Glo® 2.0 Luminescent Cell Viability Assay according to the manufacturer's recommendations (Promega; #G9241). CellTiter-Glo® 2.0 reagent was added to the medium, incubated, and assayed on an EnVision Multilabel Reader (PerkinElmer). Values represent time zero (T0). The number of viable cells following 72 (T72) or 144 hours (T144) of compound treatment was also determined using the CellTiter-Glo®2.0 Luminescent Cell Viability Assay. Using the luminescence value at time zero (T0), DMSO control growth (C), and test growth in the presence of compound (T72 or T144), the percentage growth was calculated at each of the compound concentrations levels. Percentage growth inhibition was calculated as (e.g.): [(T144−T0)/(C−T0)]×100 for concentrations for which T144>/=T0 or [(T144−T0)/T0]×100 for concentrations for which T144<T0. The dose response curve plots were generated using Prism 8 (Graphpad) and fit using nonlinear regression analysis and the log(inhibitor) versus response-variable slope (four parameters).

[2] = tested on: SLC25A19 mature transcript; test: In-cell splicing PD assay, NCI-N87; type: cell-based; conditions: Homo sapiens, NCI-N87, 6 h
Protocol: (§3) 4.1.2 In-Cell Splicing PD Assay
(§4) Splicing of the SLC25A19 mature transcript was also examined in HCC1954 and NCI-N87 cells treated with increasing concentrations of exemplary payload compounds.
(§5) HCC1954 or NCI-N87 cells (ATCC) were plated in RPM1+10% FBS media (ATCC) at 1000 cells per well at 20 μL per well. Cells were treated with compounds in a 4-fold dilution dose-response. After 6 hours, cells were PBS washed and lysed with 30 μL of CL buffer (IgePal CA-630, 5M NaCl, 1M Tris HCl 1M pH 7.4 in water) containing 25 μL/mL of RNAsin (Promega) and incubated for 20 min at RT on a rocker. Resulting mixture (1 μL) was used to assess splicing modulation in a Taqman Fast Virus 1-Step MasterMix (Applied Biosystems) reverse transcription PCR reaction with the following Taqman primers according to the manufacturer's recommendations: SLC25A19 (Invitrogen, Hs00222265_m1); RPLPO (Invitrogen, Hs99999902_m1).

[3] = tested on: NCI-N87 gastric cancer cells; test: Payload cell viability dose response (CellTiter-Glo 2.0), NCI-N87 (Example 4); type: cell-based, human; conditions: for GI50: Homo sapiens
Protocol: as §1, §2

[4] = tested on: SLC25A19 mature transcript; test: In-cell splicing PD assay, HCC1954; type: cell-based; conditions: Homo sapiens, HCC1954, 6 h
Protocol: as §3, §4, §5

[5] = HCC1954, 72 h, read-out: CTG 72 h GI50
[6] = HCC1954, 144 h, read-out: CTG 144 h GI50
[7] = NCI-N87, 72 h, read-out: CTG 72 h GI50
[8] = NCI-N87, 144 h, read-out: CTG 144 h GI50

| SMILES | CTGIo-ATS GMean LD50 (nM) 72 h THP1.1 (THP1.1) [nM] | CTGIo-ATS Mean MinResponse % 72 h THP1.1 (THP1.1) [%] | GI50 (THP1.1) [nM] | IC50 (Ad2.2 pre-mRNA) [nM] | IC50 (Ad2.1) [nM] | CTGIo-ATS GMean LD50 (nM) 72 h NCIH1650.1 (NCIH1650.1) [nM] | CTGIo-ATS Mean MinResponse % 72 h NCIH1650.1 (NCIH1650.1) [%] | GI50 (NCIH1650.1) [nM] | CTG 72 h LD50 ([1]; HCC1954, 72 h) [µM] | CTG 72 h Rmin ([1]; HCC1954, 72 h) [%] | CTG 144 h LD50 ([1]; HCC1954, 144 h) [µM] | CTG 144 h Rm in ([1]; HCC1954, 144 h) [%] | GI50 [1, 5] [nM] | GI50 [1, 6] [nM] | IC50 [2] [nM] | GI50 [3, 7] [nM] | GI50 [3, 8] [nM] | CTG 72 h LD50 ([3]; NCI-N87, 72 h) [µM] | CTG 72 h Rmin ([3]; NCI-N87, 72 h) [%] | CTG 144 h LD50 ([3]; NCI-N87, 144 h) [µM] | also measured |
| --- | --- | --- | --- | --- | --- | --- | --- | --- | --- | --- | --- | --- | --- | --- | --- | --- | --- | --- | --- | --- | --- |
| CNC1CCN(C(=O)O[C@@H]2C[C@H](CC(=O)O)O[C@H](/C(C)=C/C=C/[C@@H](C)C[C@@]3(C)O[C@@H]3[C@H](C)[C@@H](OC)[C@@H](C)O)[C@H]2C)C1 (stereo partly drawn) [Compound H3, 2-((2R,4R,5S,6S)-6-((S,2E,4E)-7-((2R,3R)-3-((2R,3R,4R)-4-hydroxy-3-methoxypentan-2-yl)-2-methyloxiran-2-yl)-6-methylhepta-2,4-dien-2-yl)-5-methyl-4-((3-(methylamino)pyrrolidine-1-carbonyl)oxy)tetrahydro-2H-pyran-2-yl)acetic acid] | 478.332 | −92.943 | 54.6 | 35.2 | 562 | >10000 | 19.182 | 115 | – | – | – | – | – | – | – | – | – | – | – | – | – |
| CNC1CCN(C(=O)OCCCCCC(=O)NC[C@H]2CC[C@H](C)[C@@H](/C(C)=C/C=C/[C@@H](C)C[C@@]3(C)O[C@@H]3[C@H](C)[C@@H](OC)[C@@H](C)O)O2)C1 (stereo partly drawn) [Compound H7, 6-((((2R,5S,6S)-6-((S,2E,4E)-7-((2R,3R)-3-((2R,3R,4R)-4-hydroxy-3-methoxypentan-2-yl)-2-methyloxiran-2-yl)-6-methylhepta-2,4-dien-2-yl)-5-methyltetrahydro-2H-pyran-2-yl)methyl)amino)-6-oxohexyl 3-(methylamino)pyrrolidine-1-carboxylate] | 6.756 | −99.328 | 0.65 | 12.1 | 14.5 | >10000 | 5.754 | 0.772 | – | – | – | – | – | – | – | – | – | – | – | – | – |
| CO[C@H]([C@@H](C)[C@H]1O[C@]1(C)C[C@H](C)/C=C/C=C(\C)[C@H]1O[C@@H](CNC(=O)CCOCCOC(=O)N2CCNCC2)CC[C@@H]1C)[C@@H](C)O [Compound H8, 2-(3-((((2R,5S,6S)-6-((S,2E,4E)-7-((2R,3R)-3-((2R,3R,4R)-4-hydroxy-3-methoxypentan-2-yl)-2-methyloxiran-2-yl)-6-methylhepta-2,4-dien-2-yl)-5-methyltetrahydro-2H-pyran-2-yl)methyl)amino)-3-oxopropoxy)ethyl piperazine-1-carboxylate] | 11.851 | −102.030 | 1.22 | 12.9 | 12.9 | >10000 | 17.053 | 1.1 | – | – | – | – | – | – | – | – | – | – | – | – | – |
| COC(=O)[C@@H](CCCCNC(=O)N1CCN(C)CC1)NC(=O)C[C@H]1CC[C@H](C)[C@@H](/C(C)=C/C=C/[C@@H](C)C[C@@]2(C)O[C@@H]2[C@H](C)[C@@H](OC)[C@@H](C)O)O1 [Compound H21] | – | – | – | – | – | – | – | – | > 10 | −54.164 | 0.127893 | −97.761 | 81.4 | 50 | 87.5 | 35.5 | 40.9 | > 10 | −7.791 | 0.654736 | CTG 144 h Rmin ([3]; NCI-N87, 144 h): −86.347%; IC50 [4]: 157 nM |
| CO[C@H]([C@@H](C)[C@H]1O[C@]1(C)C[C@H](C)/C=C/C=C(\C)[C@H]1O[C@@H](CNC(=O)[C@H]2CC[C@H](COC(=O)N3CCN(C)CC3)CC2)CC[C@@H]1C)[C@@H](C)O [Compound H22] | – | – | – | – | – | – | – | – | > 10 | 82.229 | > 10 | 71.431 | > 10000 | > 10000 | > 10000 | > 10000 | 5100 | > 10 | 48.181 | > 10 | CTG 144 h Rmin ([3]; NCI-N87, 144 h): 29.113%; IC50 [4]: > 10000 nM |
